Experimental data: the supplement of paper PMC5579334

How the values were obtained:
HS-PSS [1] = test: relative IC50 (inflection point of fitted dose-response curve, CellTox-Green cytotoxicity, 72 h; top asymptote may be below 50%); higher = less potent
Summary of the method: (§1)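 For 72 h at 37 °C, MPNST cell lines and primary human Schwann cells were exposed in 384-well plates to five 10-fold compound dilutions. CellTox-Green, added before seeding at a final 1:1000 dilution, gave fluorescence from DNA released by disrupted cells. Signals were scaled to vehicle and positive-control wells, cultures failing plate quality control were left out, and four-parameter logistic fits were applied. Relative IC50 and drug sensitivity score were derived from the fits, with IC50 censored at the top concentration.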

ST8814 [2] = test: as above
Summary of the method: as §1

HS-PSS [3] = test: relative IC50 (inflection point of fitted dose-response curve, CellTiter-Glo viability, 72 h; top asymptote may be below 50% inhibition); higher = less potent
Summary of the method: (§2)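 MPNST cell lines and primary human Schwann cells were seeded at 750–1000 cells per well into 384-well plates preprinted with each compound at five concentrations in 10-fold steps, then incubated 72 h at 37 °C, 5% CO2. CellTiter-Glo ATP luminescence gave viability, scaled between vehicle and positive-control wells, with duplicates averaged where present. Curves were fitted with a four-parameter logistic model. Percent inhibition refers to the top concentration, while drug sensitivity score and relative IC50, censored at the top concentration, come from these fits.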

S1507-2 = test: as above
Summary of the method: as §2

STS26T [4] = test: as above
Summary of the method: as §2

HSC2 [5] = test: as above
Summary of the method: as §2

HSC1 [6] = test: as above
Summary of the method: as §2

S462 = test: as above
Summary of the method: as §2

HS-Sch-2 = test: as above
Summary of the method: as §2

YST-1 = test: as above
Summary of the method: as §2

ST8814 [7] = test: as above
Summary of the method: as §2

STS26T [8] = test: relative IC50 (inflection point of fitted dose-response curve, CellTox-Green cytotoxicity, 72 h; top asymptote may be below 50%); higher = less potent
Summary of the method: as §1

HSC2 [9] = test: as above
Summary of the method: as §1

HSC1 [10] = test: as above
Summary of the method: as §1

C[C@]12O[C@H](C[C@]1(O)CO)n1c3ccccc3c3c4c(c5c6ccccc6n2c5c31)CNC4=O [Lestaurtinib]
relative IC50 (HS-PSS [1]): > 1000 nM
relative IC50 (ST8814 [2]): 290 nM
relative IC50 (HS-PSS [3]): 87.2 nM
relative IC50 (S1507-2): 101 nM
relative IC50 (STS26T [4]): 155 nM
relative IC50 (HSC2 [5]): 24.9 nM
relative IC50 (HSC1 [6]): 29.3 nM
relative IC50 (S462): 93.8 nM
relative IC50 (HS-Sch-2): 112 nM
relative IC50 (YST-1): 59.8 nM
relative IC50 (ST8814 [7]): 130 nM

Clc1ccc(C(c2ccccc2Cl)C(Cl)Cl)cc1 (stereo unspecified) [Mitotane]
relative IC50 (HS-PSS [1]): > 10000 nM
relative IC50 (STS26T [8]): > 10000 nM
relative IC50 (HSC2 [9]): > 10000 nM
relative IC50 (HSC1 [10]): > 10000 nM
relative IC50 (ST8814 [2]): > 10000 nM
relative IC50 (HS-PSS [3]): > 10000 nM
relative IC50 (S1507-2): > 10000 nM
relative IC50 (STS26T [4]): > 10000 nM
relative IC50 (HSC2 [5]): > 10000 nM
relative IC50 (HSC1 [6]): > 10000 nM
relative IC50 (S462): > 10000 nM
relative IC50 (HS-Sch-2): > 10000 nM
relative IC50 (YST-1): > 10000 nM

COc1cccc2c1C(=O)c1c(O)c3c(c(O)c1C2=O)C[C@@](O)(C(=O)CO)C[C@@H]3O[C@H]1C[C@H](N)[C@H](O)[C@H](C)O1 [Doxorubicin]
relative IC50 (HS-PSS [1]): 367 nM
relative IC50 (HSC2 [9]): 346 nM
relative IC50 (ST8814 [2]): > 1000 nM
relative IC50 (HS-PSS [3]): 199 nM
relative IC50 (S1507-2): 72.5 nM
relative IC50 (STS26T [4]): 81.2 nM
relative IC50 (HSC2 [5]): 109 nM
relative IC50 (HSC1 [6]): 83.2 nM
relative IC50 (S462): 71.2 nM
relative IC50 (HS-Sch-2): 133 nM
relative IC50 (YST-1): 54.9 nM
relative IC50 (ST8814 [7]): 130 nM

COc1ncc(-c2ccc3nccc(-c4ccnnc4)c3c2)cc1NS(=O)(=O)c1ccc(F)cc1F
relative IC50 (HSC2 [9]): > 1000 nM
relative IC50 (HSC1 [10]): > 1000 nM
relative IC50 (ST8814 [2]): 161 nM
relative IC50 (S1507-2): 17.6 nM
relative IC50 (STS26T [4]): 18.5 nM
relative IC50 (HSC2 [5]): 25.5 nM
relative IC50 (HSC1 [6]): 22.7 nM
relative IC50 (S462): 63.2 nM
relative IC50 (ST8814 [7]): 52.2 nM

Cn1c(=O)c(F)c(Nc2ccc(I)cc2F)c2c(=O)n(C[C@@H](O)CO)cnc21 [TAK-733]
relative IC50 (HS-PSS [1]): > 1000 nM
relative IC50 (HSC2 [9]): > 1000 nM
relative IC50 (HSC1 [10]): > 1000 nM
relative IC50 (ST8814 [2]): 218 nM
relative IC50 (HS-PSS [3]): 162 nM
relative IC50 (S1507-2): 85 nM
relative IC50 (STS26T [4]): 25.1 nM
relative IC50 (HSC2 [5]): 90.6 nM
relative IC50 (HSC1 [6]): 97.3 nM
relative IC50 (S462): 58.5 nM
relative IC50 (HS-Sch-2): 152 nM
relative IC50 (ST8814 [7]): 87.9 nM

CN(C)CCN1C(=O)c2cccc3cc(N)cc(c23)C1=O [Amonafide]
relative IC50 (HS-PSS [1]): 2150 nM
relative IC50 (HSC1 [10]): > 10000 nM
relative IC50 (ST8814 [2]): 3150 nM
relative IC50 (HS-PSS [3]): 2410 nM
relative IC50 (S1507-2): 1360 nM
relative IC50 (STS26T [4]): 2240 nM
relative IC50 (HSC2 [5]): 1860 nM
relative IC50 (HSC1 [6]): 1350 nM
relative IC50 (S462): 1650 nM
relative IC50 (HS-Sch-2): 1700 nM
relative IC50 (YST-1): 1020 nM
relative IC50 (ST8814 [7]): 1690 nM

CN(N=O)C(=O)N[C@@H]1[C@@H](O)[C@H](O)[C@@H](CO)O[C@@H]1O [Streptozocin]
relative IC50 (HS-PSS [1]): > 10000 nM
relative IC50 (STS26T [8]): > 10000 nM
relative IC50 (HSC2 [9]): > 10000 nM
relative IC50 (HSC1 [10]): > 10000 nM
relative IC50 (ST8814 [2]): > 10000 nM
relative IC50 (S1507-2): > 10000 nM
relative IC50 (STS26T [4]): > 10000 nM
relative IC50 (HSC2 [5]): > 10000 nM
relative IC50 (HSC1 [6]): > 10000 nM
relative IC50 (S462): > 10000 nM

O=S(=O)(c1cccc2cnccc12)N1CCCNCC1 [Fasudil]
relative IC50 (STS26T [8]): 20200 nM
relative IC50 (HSC2 [9]): > 50000 nM
relative IC50 (HSC1 [10]): > 50000 nM
relative IC50 (ST8814 [2]): > 50000 nM
relative IC50 (HS-PSS [3]): 19800 nM
relative IC50 (S1507-2): 19700 nM
relative IC50 (STS26T [4]): 17600 nM
relative IC50 (HSC2 [5]): 16600 nM
relative IC50 (HSC1 [6]): 13000 nM
relative IC50 (S462): 16100 nM
relative IC50 (HS-Sch-2): 16700 nM
relative IC50 (YST-1): 16500 nM
